Key:
Type in all cases: cell-based, human
[1] = test system: U-118 Glioblastoma cell line; experiment: DIMSCAN cytotoxicity, fenretinide + L-threo-sphinganines 3:1 (Example B5); set-up: key to CI (Combination Index): CI<0.9 synergy, 0.9-1.1 additive, >1.1 antagonistic; details: U-118 MG, 96 h
Procedure: (§1) Cytotoxicity Assay—Once again, cytotoxicity is determined using the DIMSCAN assay system (R. Proffitt et al., Cytometry 24, 204-213 (1996); T. Frgala et al., Mol Cancer Ther. 6:886-97, 2007). The system employs digital imaging microscopy to quantify viable cells, which selectively accumulate fluorescein diacetate to become brightly fluorescent. The system is capable of measuring cytotoxicity over a 4-5 log dynamic range by quenching the residual fluorescence of dead and dying cells with eosin Y and quantifying the total fluorescence of viable cells using digital thresholding. Measured fluorescence is directly proportionate to the number of viable cells. A comparison of the total fluorescence of a drug-treated cell population to the fluorescence of a similar number of untreated cells yields a survival fraction. In brief, 2000 to 10,000 cells/well (depending on size and growth rates) are replicate plated into 60 wells of a 96-well tissue culture plate in 0.1 mL of whole medium and allowed to attach overnight. Drug(s) are then added in 0.05 mL of whole medium to the final concentrations indicated. Drugs (fenretinide, and various chain length L-threo-sphinganines) were tested both as single agents and in a 3:1 ratio of fenretinide:sphinganine. C18-L-threo-sphinganine, or “safingol,” was also tested and results shown for reference. There are 12 wells treated per drug concentration. Twelve wells receive drug vehicle-only to the appropriate final concentration and serve as controls for the plate. Cells are incubated for 96 hours at 37° C. in ambient air with 5% CO2. Fluorescein diacetate is then added to each well in 0.05 mL media to a final concentration of 8 microgram/mL. Cells are incubated for a further 15 minutes at 37° C. and 0.03 mL of 0.5% eosin Y is added to each well. Total fluorescence of viable cells is then measured by digital imaging microscopy. Results were graphed as the ratio of the fluoresecence of drug-treated wells to non-drug treated control wells (i.e., Survival Fraction). All tests were performed at least twice. Representative results are shown.
(§2) The Combination Index (CI) is a term to describe mathematical modeling of the pharmacologic effects on cytotoxicity (cell death) of two drugs in combination based. Cytotoxic “synergy” is defined as a cell death affect which is greater than would be expected from a simple product of the single agent cytotoxicities alone (i.e. an “additive” effect). By Chou-Talalay analysis, a CI<0.9 on a Fraction Affected (“Fa”, i.e. fraction of cells killed) indicates synergy, with smaller numbers indicating greater synergy; a CI of 0.9-1.1 signifies an additive or near-additive effect; and a CI>1.1 means the drug combination is antagonistic.
Fenretinide and L-threo-sphinganines tested in human Glioblastoma (brain cancer) cell line, U-118.

[2] = test system: T98G Glioblastoma multiforme cell line; experiment: DIMSCAN cytotoxicity, fenretinide + L-threo-sphinganines 3:1 (Example B6); details: 96 h
Procedure: as §1, §2
Fenretinide and L-threo-sphinganines tested in human Glioblastoma multiforme (brain cancer) cell line, T98G.

[3] = test system: SJ-G2 Glioblastoma cell line; experiment: DIMSCAN cytotoxicity, fenretinide + L-threo-sphinganines 3:1 (Example B8); details: 96 h
Procedure: as §1, §2
Fenretinide and L-threo-sphinganines tested in human Glioblastoma (brain cancer) cell line, SJ-G2.

[4] = test system: RPMI-8226 Multiple Myeloma cell line; experiment: DIMSCAN cytotoxicity, fenretinide + L-threo-sphinganines 3:1 (Example B2); details: 96 h
Procedure: as §1, §2
Fenretinide and L-threo-sphinganines tested in human Multiple Myeloma (a cancer of the blood and bone marrow) cell line, RPMI-8226.

[5] = test system: A-172 Glioblastoma multiforme cell line; experiment: DIMSCAN cytotoxicity, fenretinide + L-threo-sphinganines 3:1 (Example B4); set-up: key to CI (Combination Index): Chou-Talalay CI: <0.9 synergy, 0.9-1.1 additive, >1.1 antagonism; details: 96 h
Procedure: as §1, §2
Fenretinide and L-threo-sphinganines tested in human Glioblastoma multiforme (brain cancer) cell line, A-172.

[6] = 4-HPR 1.5 μM + L-threo-sphinganine 0.5 μM
[7] = 4-HPR 3 μM + L-threo-sphinganine 1 μM
[8] = 4-HPR 6 μM + L-threo-sphinganine 2 μM
[9] = 4-HPR 9 μM + L-threo-sphinganine 3 μM

Compound	CI (Combination Index) [1, 6]	Fa (fraction affected) [1, 6]	CI (Combination Index) [1, 7]	Fa (fraction affected) [1, 7]	CI (Combination Index) [1, 8]	Fa (fraction affected) [1, 8]	CI (Combination Index) [1, 9]	Fa (fraction affected) [1, 9]	CI (Combination Index) [2, 6]	Fa (fraction affected) [2, 6]	CI (Combination Index) [2, 7]	Fa (fraction affected) [2, 7]	CI (Combination Index) [2, 8]	Fa (fraction affected) [2, 8]	CI (Combination Index) [2, 9]	Fa (fraction affected) [2, 9]	CI (Combination Index) [3, 6]	Fa (fraction affected) [3, 6]	CI (Combination Index) [3, 7]	Fa (fraction affected) [3, 7]	other results
CCCCCCCCCCCCCCC[C@H](O)[C@@H](N)CO [C18, (2S,3S)-2-amino-1,3-octadecanediol, reference compound]	1.4	0.317	2.3	0.407	0.5	0.976	0.3	0.995	0.786	0.657	1.316	0.701	0.767	0.906	0.023	0.999	0.7	0.437	0.7	0.728	CI (Combination Index) [3, 8]: 0.5; Fa (fraction affected) [3, 8]: 0.950; CI (Combination Index) [3, 9]: 0.6; Fa (fraction affected) [3, 9]: 0.958; CI (Combination Index) [4, 6]: 1.0; Fa (fraction affected) [4, 6]: 0.616; CI (Combination Index) [4, 7]: 0.9; Fa (fraction affected) [4, 7]: 0.879; CI (Combination Index) [4, 8]: 0.2; Fa (fraction affected) [4, 8]: 0.997; CI (Combination Index) [4, 9]: >0.1; Fa (fraction affected) [4, 9]: 1; CI (Combination Index) [5, 6]: 1.3; Fa (fraction affected) [5, 6]: 0.233; CI (Combination Index) [5, 7]: 0.5; Fa (fraction affected) [5, 7]: 0.803; CI (Combination Index) [5, 8]: 0.3; Fa (fraction affected) [5, 8]: 0.956; CI (Combination Index) [5, 9]: 0.1; Fa (fraction affected) [5, 9]: 0.993
CCCCCCCCCCCCCC[C@H](O)[C@@H](N)CO [C17, (2S,3S)-2-amino-1,3-heptadecanediol]	1.7	0.519	1.8	0.791	1.5	0.951	0.7	0.995	1.7	0.447	0.3	0.887	0.3	0.944	0.2	0.980	0.6	0.462	0.4	0.874	CI (Combination Index) [3, 8]: 0.6; Fa (fraction affected) [3, 8]: 0.928; CI (Combination Index) [3, 9]: 0.8; Fa (fraction affected) [3, 9]: 0.941; CI (Combination Index) [4, 6]: 1.12; Fa (fraction affected) [4, 6]: 0.549; CI (Combination Index) [4, 7]: 1.00; Fa (fraction affected) [4, 7]: 0.859; CI (Combination Index) [4, 8]: 0.43; Fa (fraction affected) [4, 8]: 0.993; CI (Combination Index) [4, 9]: >0.1; Fa (fraction affected) [4, 9]: 1.000; CI (Combination Index) [5, 6]: 1.4; Fa (fraction affected) [5, 6]: 0.232; CI (Combination Index) [5, 7]: 1.4; Fa (fraction affected) [5, 7]: 0.529; CI (Combination Index) [5, 8]: 0.2; Fa (fraction affected) [5, 8]: 0.996; CI (Combination Index) [5, 9]: >0.1; Fa (fraction affected) [5, 9]: 1.000

Source: patent US20110152267A1, “Compositions and Methods for Treating Hyperproliferative Disorders” (Texas Tech University System, priority 2009, published 2011)
